The target of assay [1] is KRas G12C (Homo sapiens, UniProt P01116, C118S/C51S/C80L/G12C). Description: KRas G12C Modification Assay (LCMS detection of covalent adduct). The format is binding. Particulars: normalized percent of control; tested at 5 μM concentration for 3 hours. The essentials: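 Covalent modification was read by reverse-phase LC/MS of intact protein after compound exposure, each reaction stopped at its time point with 25 mM acetic acid. Unmodified-protein signal, taken as percent of total, was normalised to untreated protein and reported as POC.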

Assay [2] deals with NCI-H358 cells (express KRas G12C), Phospho-ERK. Description: Cellular inhibition of KRas G12C: Phospho-ERK in NCI-H358 cells. The format is cell-based. The note with it: Homo sapiens, NCI-H358, 3 h, pERK(Thr202/Tyr204) normalized with GAPDH; NCI-H358 cells; 3 hours; read-out: IC50. In outline: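 IC50 derived by 4-parameter fit of GAPDH-normalized pERK(Thr202/Tyr204) signal, as percent of DMSO control. Signal came from in-cell immunodetection with infrared secondaries after 3 h compound exposure of KRas G12C NCI-H358 cells at 0.5% DMSO.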

The record followed here is patent publication US10125134B2 (Mirati Therapeutics, Inc., priority 2016, dated 2018).

As usually defined, the IC50 is the concentration that inhibits the measured activity by half.

Consider `C=CC(=O)N1CCN(c2nc(OC[C@@H]3CCCN3C(C)C)nc3c2CCN(c2cccc4ccccc24)C3)C[C@@H]1CC#N` [Example 320, 2-[(2S)-4-[2-[[(2S)-1-isopropylpyrrolidin-2-yl]methoxy]-7-(1-naphthyl)-6,8-dihydro-5H-pyrido[3,4-d]pyrimidin-4-yl]-1-prop-2-enoyl-piperazin-2-yl]acetonitrile], for which, in assay [1], the POC entry is on record as “C (“C”>50% POC)”. In addition, the half-inhibitory concentration (IC50) in assay [2] was 0.1 to 1000 nM.
The matching figures for `C=CC(=O)N1CCN(c2nc(OC[C@@H]3CCCN3C)nc3c2CCN(c2c(O)cccc2F)C3)[C@@H](C)C1` [Example 321, 1-[(3S)-4-[7-(2-fluoro-6-hydroxy-phenyl)-2-[[(2S)-1-methylpyrrolidin-2-yl]methoxy]-6,8-dihydro-5H-pyrido[3,4-d]pyrimidin-4-yl]-3-methyl-piperazin-1-yl]prop-2-en-1-one]: “B (“B”>25% POC−≤50% POC)” and more than 1000 nM.
`C=CC(=O)N1CCN(c2nc(OC[C@@H]3CCCN3CC)nc3c2CCN(c2ccc(F)c4ccccc24)C3)CC1CC#N` (stereo partly drawn) [Example 322, 2-(1-acryloyl-4-(2-(((S)-1-ethylpyrrolidin-2-yl)methoxy)-7-(4-fluoronaphthalen-1-yl)-5,6,7,8-tetrahydropyrido[3,4-d]pyrimidin-4-yl)piperazin-2-yl)acetonitrile]: the POC entry in assay [1] is “C (“C”>50% POC)”. Moreover, the IC50 in assay [2] was in the range of 0.1 to 1000 nM.
In the case of `C=CC(=O)N1CCN(c2nc(OC[C@H]3C[C@H](O)CN3C)nc3c2CCN(c2cccc4ccccc24)C3)C[C@@H]1CC#N` [Example 323, 2-[(2S)-4-[2-[[(2R,4S)-4-hydroxy-1-methyl-pyrrolidin-2-yl]methoxy]-7-(1-naphthyl)-6,8-dihydro-5H-pyrido[3,4-d]pyrimidin-4-yl]-1-prop-2-enoyl-piperazin-2-yl]acetonitrile], the POC entry in assay [1] is reported as “C (“C”>50% POC)”. Besides, the half-maximal inhibitory concentration (IC50) in assay [2] was 0.1 to 1000 nM.
The matching figures for `C=CC(=O)N1CCN(c2nc(OC[C@@H]3CCCN3C)nc3c2CCN(c2cccc(OC)c2C)C3)C[C@@H]1CC#N` [Example 324, 2-[(2S)-4-[7-(3-methoxy-2-methyl-phenyl)-2-[[(2S)-1-methylpyrrolidin-2-yl]methoxy]-6,8-dihydro-5H-pyrido[3,4-d]pyrimidin-4-yl]-1-prop-2-enoyl-piperazin-2-yl]acetonitrile]: “C (“C”>50% POC)” and 0.1 to 1000 nM.
Regarding `C=CC(=O)N1CCN(c2nc(OC[C@@H]3CCCN3C)nc3c2CCN(c2ccccc2C#N)C3)C[C@@H]1CC#N` [Example 325, 2-[4-[(3S)-3-(cyanomethyl)-4-prop-2-enoyl-piperazin-1-yl]-2-[[(2S)-1-methylpyrrolidin-2-yl]methoxy]-6,8-dihydro-5H-pyrido[3,4-d]pyrimidin-7-yl]benzonitrile], the POC result in assay [1] is given as “C (“C”>50% POC)”. Further, the half-inhibitory concentration (IC50) in assay [2] is more than 1000 nM.
In the case of `C=CC(=O)N1CCN(c2nc(OC[C@@H]3CCCN3C)nc3c2CCN(c2cccc4ccc(C)cc24)C3)C[C@@H]1CC#N` [Example 326, 2-((S)-1-acryloyl-4-(7-(7-methylnaphthalen-1-yl)-2-(((S)-1-methylpyrrolidin-2-yl)methoxy)-5,6,7,8-tetrahydropyrido[3,4-d]pyrimidin-4-yl)piperazin-2-yl)acetonitrile], the POC result in assay [1] was “C (“C”>50% POC)”. Moreover, the IC50 in assay [2] lay in the range of 0.1 to 1000 nM.
The matching figures for `C=CC(=O)N1CCN(c2nc(OC[C@@H]3C[C@@H](OC)CN3C)nc3c2CCN(c2cccc4ccccc24)C3)C[C@@H]1CC#N` [Example 327, 2-((S)-1-acryloyl-4-(2-(((2S,4R)-4-methoxy-1-methylpyrrolidin-2-yl)methoxy)-7-(naphthalen-1-yl)-5,6,7,8-tetrahydropyrido[3,4-d]pyrimidin-4-yl)piperazin-2-yl)acetonitrile]: “C (“C”>50% POC)” and 0.1 to 1000 nM.
